Measured values reported in ChEMBL document CHEMBL3879901, “Substituted isoquinolin-1(2H)-ones, and methods of use thereof” (2012).
pEC50, pIC50: −log10 of the molar value.

Legend:
[1] = target: PI3-kinase p110-alpha/p85-alpha (Homo sapiens, UniProt P42336); assay: Inhibition of N-terminal His6-tagged recombinant full-length human p110alpha/untagged recombinant full length human p85alpha expressed in baculovirus infected Sf21 cells using phosphatidylinositol as substrate in presence of gamma-32P-ATP after 5 mins by thin layer chromatographic method
[2] = target: PI3-kinase p110-delta/p85-alpha (Homo sapiens, UniProt O00329); assay: Inhibition of N-terminal His6-tagged recombinant full-length human p110delta/untagged recombinant full length p85alpha expressed in baculovirus infected Sf21 cells using phosphatidylinositol as substrate in presence of gamma-32P-ATP after 5 mins by thin layer chromatographic method
PI3K p110 beta/p85 alpha = PI3K p110 beta/p85 alpha (Homo sapiens, UniProt P42338); assay: Inhibition of N-terminal His6-tagged recombinant full-length human p110beta/untagged recombinant full length p85alpha expressed in baculovirus infected Sf21 cells using phosphatidylinositol as substrate in presence of gamma-32P-ATP after 5 mins by thin layer chromatographic method
[3] = Antiproliferative activity against Balb/c mouse splenic B cells preincubated for 30 mins followed by LPS or F(ab')2 donkey anti-mouse IgM and recombinant mouse IL4 stimulation measured after 72 hrs by Alamar Blue reduction assay; type: functional, cell-based

Sequence of PI3K p110 beta/p85 alpha (P27986 whole entry): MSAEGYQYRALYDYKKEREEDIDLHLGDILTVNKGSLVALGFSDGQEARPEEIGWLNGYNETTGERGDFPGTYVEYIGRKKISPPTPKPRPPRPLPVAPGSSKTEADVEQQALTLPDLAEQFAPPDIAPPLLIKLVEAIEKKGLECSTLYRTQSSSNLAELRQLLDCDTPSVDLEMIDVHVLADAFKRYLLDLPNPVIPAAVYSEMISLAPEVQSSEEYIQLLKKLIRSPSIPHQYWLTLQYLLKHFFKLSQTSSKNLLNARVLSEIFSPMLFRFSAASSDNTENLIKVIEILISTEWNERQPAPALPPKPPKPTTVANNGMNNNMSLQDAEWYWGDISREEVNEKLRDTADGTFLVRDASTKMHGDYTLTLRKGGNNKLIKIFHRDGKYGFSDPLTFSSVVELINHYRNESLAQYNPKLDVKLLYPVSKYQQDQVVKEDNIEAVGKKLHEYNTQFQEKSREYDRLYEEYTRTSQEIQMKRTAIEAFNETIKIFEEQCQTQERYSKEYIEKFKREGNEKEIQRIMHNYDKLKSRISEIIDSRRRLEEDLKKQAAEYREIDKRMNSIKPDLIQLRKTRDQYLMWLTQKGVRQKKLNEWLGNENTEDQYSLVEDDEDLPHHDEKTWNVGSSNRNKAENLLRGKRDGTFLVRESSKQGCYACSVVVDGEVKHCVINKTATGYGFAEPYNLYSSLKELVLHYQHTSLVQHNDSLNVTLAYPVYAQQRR
Sequence of PI3K p110 beta/p85 alpha (P42338 whole entry): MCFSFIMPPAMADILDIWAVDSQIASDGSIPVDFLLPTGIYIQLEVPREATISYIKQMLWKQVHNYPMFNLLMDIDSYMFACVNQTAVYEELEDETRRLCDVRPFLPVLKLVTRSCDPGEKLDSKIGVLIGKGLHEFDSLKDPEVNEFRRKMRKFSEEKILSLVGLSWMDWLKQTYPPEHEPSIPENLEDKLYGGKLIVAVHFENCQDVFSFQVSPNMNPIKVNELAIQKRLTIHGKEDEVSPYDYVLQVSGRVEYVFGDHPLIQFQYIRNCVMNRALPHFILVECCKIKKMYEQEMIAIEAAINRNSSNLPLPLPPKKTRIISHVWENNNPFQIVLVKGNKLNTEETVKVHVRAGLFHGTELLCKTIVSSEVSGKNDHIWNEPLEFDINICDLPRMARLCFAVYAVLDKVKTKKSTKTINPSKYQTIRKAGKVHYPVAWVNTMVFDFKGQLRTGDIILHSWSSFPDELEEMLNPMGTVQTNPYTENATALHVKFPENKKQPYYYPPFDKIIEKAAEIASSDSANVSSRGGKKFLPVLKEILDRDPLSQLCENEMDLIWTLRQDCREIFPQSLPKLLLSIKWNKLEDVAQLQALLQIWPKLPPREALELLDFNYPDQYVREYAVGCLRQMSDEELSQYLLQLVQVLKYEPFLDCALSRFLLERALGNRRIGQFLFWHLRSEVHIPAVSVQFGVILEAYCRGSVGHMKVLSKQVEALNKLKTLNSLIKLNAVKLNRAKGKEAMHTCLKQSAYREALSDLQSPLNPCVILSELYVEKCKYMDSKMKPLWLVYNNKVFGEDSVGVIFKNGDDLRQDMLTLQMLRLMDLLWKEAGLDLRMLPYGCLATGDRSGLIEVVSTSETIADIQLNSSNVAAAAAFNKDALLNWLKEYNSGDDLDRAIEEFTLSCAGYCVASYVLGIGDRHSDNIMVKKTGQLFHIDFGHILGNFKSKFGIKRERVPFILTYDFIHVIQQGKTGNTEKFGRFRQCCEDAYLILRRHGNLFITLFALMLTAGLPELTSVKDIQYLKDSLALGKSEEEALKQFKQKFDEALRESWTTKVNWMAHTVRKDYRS
Sequence of PI3-kinase p110-delta/p85-alpha (P27986 whole entry): as the sequence (P27986 whole entry) above
Sequence of PI3-kinase p110-delta/p85-alpha (O00329 whole entry): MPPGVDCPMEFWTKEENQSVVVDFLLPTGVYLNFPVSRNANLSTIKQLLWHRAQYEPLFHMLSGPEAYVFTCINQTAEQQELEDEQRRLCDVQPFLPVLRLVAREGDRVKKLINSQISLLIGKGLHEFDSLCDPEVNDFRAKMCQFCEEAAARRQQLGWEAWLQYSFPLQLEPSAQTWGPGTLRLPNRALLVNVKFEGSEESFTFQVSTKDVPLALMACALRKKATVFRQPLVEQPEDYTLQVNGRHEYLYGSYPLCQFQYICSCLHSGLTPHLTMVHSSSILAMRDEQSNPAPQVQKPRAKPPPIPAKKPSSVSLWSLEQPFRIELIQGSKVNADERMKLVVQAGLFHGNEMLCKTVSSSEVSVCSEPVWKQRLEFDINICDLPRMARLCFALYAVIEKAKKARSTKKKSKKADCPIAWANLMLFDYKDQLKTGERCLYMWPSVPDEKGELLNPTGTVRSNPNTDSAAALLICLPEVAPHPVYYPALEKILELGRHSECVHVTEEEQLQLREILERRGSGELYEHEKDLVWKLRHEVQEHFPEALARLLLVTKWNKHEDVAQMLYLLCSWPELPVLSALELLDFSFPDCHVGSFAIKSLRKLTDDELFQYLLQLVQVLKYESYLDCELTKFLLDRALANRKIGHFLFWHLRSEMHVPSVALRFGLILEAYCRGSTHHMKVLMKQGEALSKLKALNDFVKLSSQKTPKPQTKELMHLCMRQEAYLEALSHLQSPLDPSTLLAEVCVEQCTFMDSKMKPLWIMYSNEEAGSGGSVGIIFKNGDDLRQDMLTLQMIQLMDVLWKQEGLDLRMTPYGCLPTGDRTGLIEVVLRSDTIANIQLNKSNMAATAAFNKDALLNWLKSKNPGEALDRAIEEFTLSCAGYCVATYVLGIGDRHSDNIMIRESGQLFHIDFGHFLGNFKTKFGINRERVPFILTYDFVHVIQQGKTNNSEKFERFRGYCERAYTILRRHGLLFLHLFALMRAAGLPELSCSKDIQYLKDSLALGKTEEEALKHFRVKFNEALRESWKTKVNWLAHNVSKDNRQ
Sequence of PI3-kinase p110-alpha/p85-alpha (P27986 whole entry): as the sequence (P27986 whole entry) above
Sequence of PI3-kinase p110-alpha/p85-alpha (P42336 whole entry): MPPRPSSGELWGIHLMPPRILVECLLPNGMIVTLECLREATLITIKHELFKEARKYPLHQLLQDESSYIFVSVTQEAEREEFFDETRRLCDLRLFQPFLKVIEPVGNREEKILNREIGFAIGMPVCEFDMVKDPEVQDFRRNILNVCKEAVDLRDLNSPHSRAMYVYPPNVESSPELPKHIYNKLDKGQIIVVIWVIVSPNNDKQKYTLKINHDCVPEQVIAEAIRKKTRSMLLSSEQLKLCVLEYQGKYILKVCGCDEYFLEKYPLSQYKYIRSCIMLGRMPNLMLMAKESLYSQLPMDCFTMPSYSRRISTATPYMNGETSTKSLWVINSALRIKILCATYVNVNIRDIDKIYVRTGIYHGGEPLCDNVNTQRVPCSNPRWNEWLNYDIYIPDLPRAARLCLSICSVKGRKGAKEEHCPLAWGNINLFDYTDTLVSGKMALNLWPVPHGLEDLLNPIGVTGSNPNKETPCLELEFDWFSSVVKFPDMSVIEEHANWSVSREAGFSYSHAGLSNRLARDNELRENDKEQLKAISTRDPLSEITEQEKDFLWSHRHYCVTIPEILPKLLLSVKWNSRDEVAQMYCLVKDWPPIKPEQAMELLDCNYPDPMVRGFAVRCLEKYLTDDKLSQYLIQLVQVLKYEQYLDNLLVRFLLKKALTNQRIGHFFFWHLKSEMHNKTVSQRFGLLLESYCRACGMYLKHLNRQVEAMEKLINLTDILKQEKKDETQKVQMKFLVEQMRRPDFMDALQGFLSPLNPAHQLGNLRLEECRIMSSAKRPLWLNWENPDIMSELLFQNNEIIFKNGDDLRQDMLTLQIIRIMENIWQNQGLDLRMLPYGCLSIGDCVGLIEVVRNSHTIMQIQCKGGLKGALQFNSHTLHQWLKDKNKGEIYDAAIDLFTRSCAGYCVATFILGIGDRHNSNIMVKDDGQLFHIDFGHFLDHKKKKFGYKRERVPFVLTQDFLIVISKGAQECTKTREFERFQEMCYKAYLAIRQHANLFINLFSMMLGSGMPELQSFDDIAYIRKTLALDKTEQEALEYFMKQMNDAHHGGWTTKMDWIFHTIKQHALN

SMILES	pIC50 [1]	pIC50 [2]	pIC50 (PI3K p110 beta/p85 alpha)	pEC50 [3]
Cc1ccccc1-n1c(Cn2nc(C#C[C@H](C)O)c3c(N)ncnc32)cc2cccc(C)c2c1=O	< 5.00	> 6.00	> 5.00	> 6.00
Cc1cccc2cc(Cn3nc(-c4cc(O)cc(F)c4)c4c(N)ncnc43)n(C3CCCCC3)c(=O)c12	< 5.00	> 7.00	> 5.00	> 6.00
Cc1cccc2cc(Cn3nc(-c4cc(O)cc(F)c4)c4c(N)ncnc43)n(-c3ccccc3F)c(=O)c12	> 5.00	> 7.00	> 5.00	> 7.00
CCc1ccccc1-n1c(Cn2nc(-c3cccc(O)c3)c3c(N)ncnc32)cc2cccc(C)c2c1=O	< 5.00	> 7.00	< 5.00	> 7.00
Cc1ccccc1-n1c(Cn2nc(-c3ccc4nc(N)ccc4c3)c3c(N)ncnc32)cc2cccc(C)c2c1=O	> 6.00	> 7.00	> 5.00	> 7.00
Cc1cccc2cc(Cn3nc(-c4cccc(O)c4)c4c(N)ncnc43)n(-c3ccccc3)c(=O)c12	< 5.00	> 7.00	< 5.00	> 7.00
Nc1ncnc2c1c(-c1cc(O)cc(F)c1)nn2Cc1cc2cccc(Cl)c2c(=O)n1C1CC1	> 4.00	> 7.00	> 7.00	> 7.00
Cc1cccc2cc(Cn3nc(-c4cc(O)cc(F)c4)c4c(N)ncnc43)n(-c3ccccc3O)c(=O)c12	> 5.00	> 7.00	> 6.00	> 7.00
Cc1ccccc1-n1c(C(C)Nc2ncnc3[nH]cnc23)cc2cccc(C)c2c1=O (configuration not stated)	< 5.00	> 7.00	> 5.00	> 7.00
Cc1ccccc1-n1c(Cn2nc(-c3ccc(F)c(O)c3)c3c(N)ncnc32)cc2cccc(C)c2c1=O	< 5.00	> 7.00	> 5.00	> 7.00
Cc1cccc2cc(Cn3nc(-c4cccc(O)c4)c4c(N)ncnc43)n(C3CCC3)c(=O)c12	< 5.00	> 7.00	> 5.00	> 6.00
Cc1ccccc1-n1c(Cn2nc(-c3ccc(Cl)c(O)c3)c3c(N)ncnc32)cc2cccc(C)c2c1=O	< 5.00	> 7.00	> 5.00	> 7.00
Cc1cccc2cc(Cn3nc(-c4cc(O)cc(F)c4)c4c(N)ncnc43)n(C3CCCC3)c(=O)c12	> 5.00	> 7.00	> 5.00	> 7.00
Cc1cccc2cc(Cn3nc(-c4cc(O)cc(F)c4)c4c(N)ncnc43)n(-c3ccccc3C(C)C)c(=O)c12	> 6.00	> 7.00	> 6.00	> 7.00
CC(=O)Nc1nc2ccc(-c3nn(Cc4cc5cccc(C)c5c(=O)n4C)c4ncnc(N)c34)cc2s1	> 4.00	> 7.00	> 6.00	> 7.00
Cc1cccc2cc(Cn3nc(-c4ccc(Cl)c(O)c4)c4c(N)ncnc43)n(-c3ccccc3F)c(=O)c12	< 5.00	> 7.00	< 5.00	> 6.00
Cc1cccc2cc(Cn3nc(-c4ccc(F)c(O)c4)c4c(N)ncnc43)n(C(C)C)c(=O)c12	< 5.00	> 7.00	> 5.00	> 7.00
Cc1cccc2cc(Cn3nc(-c4cc(O)cc(F)c4)c4c(N)ncnc43)n(C3CCC3)c(=O)c12	> 5.00	> 7.00	> 5.00	> 7.00
CC(=O)Nc1nc2ccc(-c3nn(Cc4cc5cccc(Cl)c5c(=O)n4C(C)C)c4ncnc(N)c34)cc2s1	> 4.00	> 7.00	> 7.00	> 7.00

SMILES	pIC50 [1]	pIC50 [2]	pIC50 (PI3K p110 beta/p85 alpha)	pEC50 [3]
Cc1cccc2cc(Cn3nc(I)c4c(N)ncnc43)n(-c3ccccc3O)c(=O)c12	< 5.00	> 7.00	< 5.00	> 6.00
Cc1ccccc1-n1c(Cn2nc(-c3ccc4nc(N)ncc4c3)c3c(N)ncnc32)cc2cccc(C)c2c1=O	> 4.00	> 7.00	> 6.00	> 7.00
Cc1cccc2cc(Cn3nc(-c4cn[nH]c4)c4c(N)ncnc43)n(-c3ccccc3C(C)C)c(=O)c12	> 5.00	> 7.00	> 6.00	> 7.00
CC(=O)Nc1nc2ccc(-c3nn(Cc4cc5cccc(F)c5c(=O)n4C(C)C)c4ncnc(N)c34)cc2s1	> 4.00	> 7.00	> 5.00	> 7.00
Cc1ccccc1-n1c(Cn2nc(-c3cccc(O)c3)c3c(N)ncnc32)cc2cccc(C)c2c1=O	< 5.00	> 7.00	> 5.00	> 7.00
Cc1cccnc1-n1c(Cn2nc(-c3ccc(F)c(O)c3)c3c(N)ncnc32)cc2cccc(C)c2c1=O	< 5.00	> 7.00	< 5.00	> 7.00
Cc1ccccc1-n1c(Cn2nc(-c3ccc(O)cc3)c3c(N)ncnc32)cc2cccc(C)c2c1=O	< 5.00	> 6.00	< 5.00	> 6.00
CCc1ccccc1-n1c(Cn2nc(-c3cc(O)cc(F)c3)c3c(N)ncnc32)cc2cccc(C)c2c1=O	> 5.00	> 7.00	> 6.00	> 7.00
Cc1cccc2cc(Cn3nc(I)c4c(N)ncnc43)n(C3CCCCC3)c(=O)c12	< 5.00	> 6.00	< 5.00	> 5.00
Cc1ccccc1-n1c(Cn2nc(-c3cc(O)cc(F)c3)c3c(N)nccc32)cc2cccc(C)c2c1=O	> 5.00	> 7.00	> 5.00	> 7.00
CCn1c(Cn2nc(-c3ccc4nc(NC(C)=O)sc4c3)c3c(N)ncnc32)cc2cccc(C)c2c1=O	> 4.00	> 7.00	> 6.00	> 7.00
Cc1ccccc1-n1c(Cn2nc(-c3ccc(O)c(Cl)c3)c3c(N)ncnc32)cc2cccc(C)c2c1=O	< 5.00	> 7.00	> 5.00	> 6.00
CC(=O)Nc1nc2ccc(-c3nn(Cc4cc5cccc(C)c5c(=O)n4C4CCC4)c4ncnc(N)c34)cc2s1	> 4.00	> 7.00	> 6.00	> 7.00
Cc1cccc2cc(Cn3nc(C#C[C@@H](C)O)c4c(N)ncnc43)n(-c3ccccc3C(C)C)c(=O)c12	< 5.00	> 7.00	> 5.00	> 7.00
Cc1cccc2cc(Cn3nc(C#C[C@@H](C)O)c4c(N)ncnc43)n(C3CCCCC3)c(=O)c12	< 5.00	> 7.00	< 5.00	> 5.00
Cc1cccc2cc(Cn3nc(-c4ccc(O)c(F)c4)c4c(N)ncnc43)n(-c3ccccc3F)c(=O)c12	< 5.00	> 6.00	< 5.00	> 6.00
Cc1cccc2cc(Cn3nc(-c4cc(O)cc(F)c4)c4c(N)ncnc43)n(-c3ccccc3)c(=O)c12	> 6.00	> 7.00	> 5.00	> 7.00
Cc1cccc2cc(Cn3nc(-c4cc(O)cc(F)c4)c4c(N)ncnc43)n(-c3ccccc3Cl)c(=O)c12	> 5.00	> 7.00	> 6.00	> 7.00
Cc1ccccc1-n1c(Cn2nc(-c3cn[nH]c3)c3c(N)ncnc32)cc2cccc(C)c2c1=O	< 5.00	> 7.00	> 5.00	> 7.00
